Laboratory results reported in PubChem BioAssay (NCI).
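Following 48 hours of exposure in 96-well plates, responses at five concentrations were used to interpolate endpoints linearly. GI50: concentration for 50% inhibition of growth. TGI marks complete inhibition of growth.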

Assays:
Test in all cases: inhibition of tumour cell growth, NCI panel, 48 h
OVCAR-5 ovarian = system: OVCAR-5 ovarian
HT29 colon = system: HT29 colon
M14 melanoma = system: M14 melanoma
CAKI-1 renal = system: CAKI-1 renal
NCI-H522 lung = system: NCI-H522 lung
SW-620 colon = system: SW-620 colon
PC-3 prostate = system: PC-3 prostate
BT-549 breast = system: BT-549 breast
KM12 colon = system: KM12 colon
A498 renal = system: A498 renal
NCI/ADR-RES ovarian = system: NCI/ADR-RES ovarian
MDA-MB-435 = system: MDA-MB-435
TK-10 renal = system: TK-10 renal
SK-MEL-5 melanoma = system: SK-MEL-5 melanoma
OVCAR-4 ovarian = system: OVCAR-4 ovarian
MCF7 breast = system: MCF7 breast
HCC-2998 colon = system: HCC-2998 colon
EKVX NSCLC = system: EKVX NSCLC
OVCAR-3 ovarian = system: OVCAR-3 ovarian
SK-MEL-2 melanoma = system: SK-MEL-2 melanoma
SF-268 CNS = system: SF-268 CNS
UACC-257 melanoma = system: UACC-257 melanoma
UACC-62 melanoma = system: UACC-62 melanoma
HS 578T breast = system: HS 578T breast
IGROV1 ovarian = system: IGROV1 ovarian
CCRF-CEM leukemia = system: CCRF-CEM leukemia
MOLT-4 leukemia = system: MOLT-4 leukemia
T-47D breast = system: T-47D breast
HCT-116 colon = system: HCT-116 colon
COLO 205 colon = system: COLO 205 colon
SF-295 CNS = system: SF-295 CNS
SN12C renal = system: SN12C renal
ACHN renal = system: ACHN renal
NCI-H460 lung = system: NCI-H460 lung
RPMI-8226 leukemia = system: RPMI-8226 leukemia
SNB-75 CNS = system: SNB-75 CNS
786-0 renal = system: 786-0 renal
A549 NSCLC = system: A549 NSCLC
UO-31 renal = system: UO-31 renal
SR leukemia = system: SR leukemia
HCT-15 colon = system: HCT-15 colon
K-562 leukemia = system: K-562 leukemia
LOX IMVI melanoma = system: LOX IMVI melanoma
HOP-92 NSCLC = system: HOP-92 NSCLC
RXF 393 renal = system: RXF 393 renal
DU-145 prostate = system: DU-145 prostate
OVCAR-8 ovarian = system: OVCAR-8 ovarian
NCI-H226 lung = system: NCI-H226 lung
U251 CNS = system: U251 CNS
SF-539 CNS = system: SF-539 CNS
MALME-3M melanoma = system: MALME-3M melanoma
MDA-MB-231 breast = system: MDA-MB-231 breast
HOP-62 NSCLC = system: HOP-62 NSCLC
SK-OV-3 ovarian = system: SK-OV-3 ovarian
NCI-H23 lung = system: NCI-H23 lung
SK-MEL-28 melanoma = system: SK-MEL-28 melanoma
HL-60(TB) leukemia = system: HL-60(TB) leukemia
SNB-19 CNS = system: SNB-19 CNS

## NC(CSC(c1ccccc1)(c1ccccc1)c1ccc(Cl)cc1)C(=O)O (centres undefined)
OVCAR-5 ovarian
  GI50: 0.774 µM
  TGI: > 63.9 µM
HT29 colon
  GI50: 0.347 µM
  TGI: 6.92 µM
M14 melanoma
  GI50: 0.0322 µM
  TGI: 0.132 µM
CAKI-1 renal
  GI50: 0.37 µM
NCI-H522 lung
  GI50: 0.128 µM
  TGI: 3.71 µM
SW-620 colon
  GI50: 0.19 µM
  TGI: > 78.7 µM
PC-3 prostate
  GI50: 0.342 µM
  TGI: 32.6 µM
BT-549 breast
  GI50: 0.324 µM
  TGI: 15.8 µM
KM12 colon
  GI50: 0.322 µM
  TGI: 15.1 µM
A498 renal
  GI50: 0.746 µM
  TGI: 48.8 µM
NCI/ADR-RES ovarian
  GI50: 0.712 µM
  TGI: 7.3 µM
MDA-MB-435
  GI50: 0.0344 µM
  TGI: 0.158 µM
TK-10 renal
  GI50: 13.5 µM
  TGI: 64.7 µM
SK-MEL-5 melanoma
  GI50: 0.0612 µM
  TGI: 14.1 µM
OVCAR-4 ovarian
  GI50: 11.1 µM
  TGI: > 100 µM
MCF7 breast
  GI50: 0.0647 µM
  TGI: 18.9 µM
HCC-2998 colon
  GI50: 0.276 µM
  TGI: 2.77 µM
EKVX NSCLC
  GI50: 0.342 µM
  TGI: > 33.9 µM
OVCAR-3 ovarian
  GI50: 0.255 µM
  TGI: 3.37 µM
SK-MEL-2 melanoma
  GI50: 0.239 µM
  TGI: 5.07 µM
SF-268 CNS
  GI50: 0.399 µM
  TGI: 26.5 µM
UACC-257 melanoma
  GI50: 3.87 µM
  TGI: > 78.7 µM
UACC-62 melanoma
  GI50: 0.18 µM
  TGI: 21.6 µM
HS 578T breast
  GI50: 0.114 µM
  TGI: 3.83 µM
IGROV1 ovarian
  GI50: 0.355 µM
  TGI: 34.1 µM
CCRF-CEM leukemia
  GI50: 0.386 µM
  TGI: 40 µM
MOLT-4 leukemia
  GI50: 1.66 µM
  TGI: 53.3 µM
T-47D breast
  GI50: 0.376 µM
  TGI: 42 µM
HCT-116 colon
  GI50: 0.0476 µM
  TGI: 11.2 µM
COLO 205 colon
  GI50: 0.256 µM
  TGI: 0.768 µM
SF-295 CNS
  GI50: 0.216 µM
  TGI: 3.57 µM
SN12C renal
  GI50: 0.54 µM
  TGI: > 57.8 µM
ACHN renal
  GI50: 2.6 µM
  TGI: > 78.4 µM
NCI-H460 lung
  GI50: 0.342 µM
  TGI: 12.9 µM
RPMI-8226 leukemia
  GI50: 0.143 µM
  TGI: 21.5 µM
SNB-75 CNS
  TGI: 1.85 µM
786-0 renal
  GI50: 1.36 µM
  TGI: 30 µM
A549 NSCLC
  GI50: 0.468 µM
  TGI: > 62 µM
UO-31 renal
  GI50: 6.13 µM
  TGI: > 83.4 µM
SR leukemia
  GI50: 0.121 µM
  TGI: 5.93 µM
HCT-15 colon
  GI50: 0.362 µM
  TGI: 52.9 µM
K-562 leukemia
  GI50: 0.209 µM
  TGI: > 57.6 µM
LOX IMVI melanoma
  GI50: 0.682 µM
  TGI: 36.3 µM
HOP-92 NSCLC
  GI50: 1.4 µM
  TGI: 39.3 µM
RXF 393 renal
  GI50: 0.0594 µM
  TGI: 4.52 µM
DU-145 prostate
  GI50: 0.307 µM
  TGI: 0.863 µM
OVCAR-8 ovarian
  GI50: 0.412 µM
  TGI: 44.8 µM
NCI-H226 lung
  GI50: 5.11 µM
  TGI: 49 µM
U251 CNS
  GI50: 0.0978 µM
  TGI: 18.1 µM
SF-539 CNS
  GI50: 0.148 µM
  TGI: 2.87 µM
MALME-3M melanoma
  GI50: 1.97 µM
  TGI: 39.6 µM
MDA-MB-231 breast
  GI50: 0.442 µM
  TGI: 35.8 µM
HOP-62 NSCLC
  GI50: 0.714 µM
  TGI: 20.5 µM
SK-OV-3 ovarian
  GI50: 0.158 µM
  TGI: 21.7 µM
NCI-H23 lung
  GI50: 0.487 µM
  TGI: 41.9 µM
SK-MEL-28 melanoma
  GI50: 2.46 µM
  TGI: 44.3 µM
HL-60(TB) leukemia
  GI50: 0.24 µM
  TGI: 0.724 µM
SNB-19 CNS
  GI50: 0.569 µM
  TGI: 33.2 µM
